Holding throughout (experiment): NCI tumour cell line growth inhibition, 48 h
Test [1] concerns OVCAR-5.
Test [2] concerns SF-539.
Test [3] concerns COLO 205.
In test [4] the test system is SK-MEL-28.
Test [5] deals with UO-31.
Test [6] deals with OVCAR-3.
For test [7], the system named is MOLT-4.
The subject of test [8] is OVCAR-8.
The subject of test [9] is TK-10.
In test [10] the test system is IGROV-1.
For test [11], the system named is UACC-62.
Test [12] relates to CAKI-1.
Test [13] deals with SK-OV-3.
Test [14] has as its system CCRF-CEM.
Test [15] deals with EKVX.
Test [16] relates to A498.
Test [17] relates to SF-295.
The subject of test [18] is Malme-3M.
The subject of test [19] is KM12.
Test [20] concerns DU-145.

We go through 10 compounds from ChEMBL document CHEMBL1201862, “PubChem BioAssay data set” (2004).

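1) Cells in 96-well plates. 2) Compound, 48 h, 5 concentrations. 3) Linear interpolation between surrounding doses. 4) Unreached endpoint = highest concentration. GI50 is the concentration that inhibits growth by half.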 Activity calls are given as the source filed them. Cut-off read from the data, not from the text of the source: active = GI50 up to about 1.1 µM and inactive = higher.

In the case of `COc1cc(C2c3cc4c(cc3OC(C)(N3CCCC3)C2C)OCO4)cc(OC)c1OC` (stereo not given), the GI50 in [1] is 0.49 µM (active); in test [2], 0.229 µM (active); in test [3], 0.22 µM (active); in test [4], 0.798 µM (active); in test [5], 1.26 µM (inactive); in test [6], 0.203 µM (active). Besides, the GI50 in [7] is 0.3 µM (active); in test [8] it was 0.472 µM (active); in test [9] it was 0.524 µM (active); in test [10], 0.435 µM (active); in test [11], 0.373 µM (active); in test [12], 1.09 µM (active). Further, the GI50 in test [13] is 0.391 µM (active); in test [14], 0.267 µM (active); in [15], 0.43 µM (active); in [16], 0.302 µM (active); in test [17], 0.223 µM (active); in test [18], 0.343 µM (active). Also, the values for the GI50 in test [19] and in [20] were 0.286 µM (active) and 0.327 µM (active), respectively.
`CC(=O)CC[N+](C)(C)C`: the GI50 in [1] was 44.6 µM (inactive); in [2], 62.8 µM (inactive); in [3], 9.04 µM (inactive); in test [4], 28.5 µM (inactive); in test [5] it was 42 µM (inactive); in test [6], 37.3 µM (inactive). The GI50 in test [7] is 6.15 µM (inactive); in test [8], 33.5 µM (inactive); in test [9] it was 27.6 µM (inactive); in [10], 37.3 µM (inactive); in [11], 26.8 µM (inactive); in test [12], 1.9 µM (inactive). Besides, the GI50 is 26.7 µM (inactive) in test [13]; 5.24 µM (inactive) in test [14]; 17.7 µM (inactive) in test [15]; 69.2 µM (inactive) in test [16]; 83.6 µM (inactive) in test [17]; 16.1 µM (inactive) in [18]. Further, the GI50 in [19] is 77.3 µM (inactive); in test [20] it was 88.5 µM (inactive).
For `COc1ccc2[nH]c3c(C)c4ccnc(NCCCN(C)CCCNc5ccc([N+](=O)[O-])c6[nH]c7ccccc7c(=O)c56)c4c(C)c3c2c1`, the GI50 in [1] was 0.607 µM (active); in test [2], 0.106 µM (active); in test [3], 0.0723 µM (active); in test [4] it was 0.887 µM (active); in test [5], 0.59 µM (active); in test [6], 0.607 µM (active). Also, the GI50 in [7] was 0.005 µM (active); in test [8], 0.472 µM (active); in test [9] it was 0.018 µM (active); in [10], 0.0291 µM (active); in [11] it was 0.82 µM (active); in test [12], 0.466 µM (active). Further, the GI50 was 0.76 µM (active) in test [13]; 0.212 µM (active) in [14]; 0.271 µM (active) in test [15]; 0.841 µM (active) in test [16]; 0.104 µM (active) in test [17]; 0.285 µM (active) in [18]. Also, the GI50 in [19] was 0.301 µM (active); in test [20] it was 0.628 µM (active).
With `CCCCCCCCCc1c(Cl)nc(Cl)nc1Cl`, the GI50 in [1] was 21 µM (inactive); in test [2], 18.2 µM (inactive); in [3], 19.5 µM (inactive); in test [4], 19.4 µM (inactive); in test [5], 18.3 µM (inactive); in test [6] it was 17.9 µM (inactive). The GI50 is 1.96 µM (inactive) in test [7]; 16.1 µM (inactive) in test [8]; 23 µM (inactive) in [9]; 13.2 µM (inactive) in test [10]; 20 µM (inactive) in test [11]; 4.78 µM (inactive) in [12]. Also, the GI50 in test [13] was 20.4 µM (inactive); in test [14], 2.17 µM (inactive); in [15], 22.7 µM (inactive); in test [16], 19.6 µM (inactive); in [17], 20.7 µM (inactive); in [18], 10.8 µM (inactive). In addition, the GI50 in test [19] was 32.7 µM (inactive); in [20], 17.3 µM (inactive).
Consider `COc1ccc(CSc2ccccc2Cn2cccc2)cc1OC`, for which the GI50 is > 100 µM (inactive) in test [1]; > 100 µM (inactive) in [2]; > 100 µM (inactive) in test [3]; > 100 µM (inactive) in test [4]; 39.4 µM (inactive) in test [5]; 16 µM (inactive) in test [6]. For the same compound, the GI50 was > 10 µM (inactive) in test [7]; > 100 µM (inactive) in test [8]; > 100 µM (inactive) in test [9]; > 100 µM (inactive) in [10]; 71.6 µM (inactive) in test [11]; 93.1 µM (inactive) in test [12]. The GI50 is > 100 µM (inactive) in [13]; 50.5 µM (inactive) in [14]; 82.8 µM (inactive) in [15]; 27.6 µM (inactive) in test [16]; 25.5 µM (inactive) in [17]; 28.3 µM (inactive) in test [18]. Besides, the GI50 is 28.3 µM (inactive) in [19] and > 100 µM (inactive) in test [20].
In the case of `COc1cccc(C2c3cc4c(cc3OC(NNC(N)=O)C2C)OCO4)c1OC` (stereo not given), the GI50 is 34.1 µM (inactive) in [1]; 15.4 µM (inactive) in [2]; 14.7 µM (inactive) in [3]; 21.4 µM (inactive) in test [4]; 25.6 µM (inactive) in test [5]; 17.5 µM (inactive) in [6]. Moreover, the GI50 is 16.5 µM (inactive) in [7]; 4.32 µM (inactive) in test [8]; 28.9 µM (inactive) in [9]; 23.7 µM (inactive) in test [10]; 22.3 µM (inactive) in test [11]; 24.5 µM (inactive) in test [12]. Also, the GI50 in test [13] is 34.2 µM (inactive); in [14], 24.7 µM (inactive); in [15], 26.7 µM (inactive); in [16], 18.2 µM (inactive); in test [17] it was 18.1 µM (inactive); in [18], 25.9 µM (inactive). The GI50 in test [19] is 23.2 µM (inactive); in test [20], 20.9 µM (inactive).
In the case of `Cc1cc(=O)oc2cc3oc(N(C)c4ccccc4)nc(=O)c3cc12`, the GI50 in test [1], in test [2], in test [3], in test [4], in test [5] and in [6] was > 100 µM (inactive) throughout. Also, the GI50 in [7] was > 100 µM (inactive); in [8], 42.4 µM (inactive); in [9] it was > 100 µM (inactive); in test [10], > 100 µM (inactive); in [11] it was > 100 µM (inactive); in test [12] it was > 100 µM (inactive). Further, the GI50 in test [13], in test [14], in test [15], in test [16], in [17] and in test [18] was > 100 µM (inactive) in each case. Moreover, the GI50 in [19] and in test [20] was > 100 µM (inactive) throughout.
On to `CCOc1cc(/C=N/c2ccc(Oc3ccc(Cl)cc3)c(Cl)c2)ccc1O`, for which the GI50 in test [1] is 28.1 µM (inactive); in [2], 22.8 µM (inactive); in test [3] it was 17.5 µM (inactive); in [4], 25.2 µM (inactive); in [5] it was 11.8 µM (inactive); in [6], 29.6 µM (inactive). Further, the GI50 in test [7] was 18.7 µM (inactive); in test [8], 23 µM (inactive); in test [9], 43.1 µM (inactive); in test [10], 19.1 µM (inactive); in [11], 27.7 µM (inactive); in test [12], 19.8 µM (inactive). The GI50 in test [13] is 26.1 µM (inactive); in test [14], 16.1 µM (inactive); in test [15], 18.5 µM (inactive); in test [16], 12.4 µM (inactive); in test [17], 18.7 µM (inactive); in [18], 23.3 µM (inactive). Also, the GI50 in [19] is 18.2 µM (inactive); in test [20], 50.5 µM (inactive).
Regarding `O=C1C(Cl)=C(N2CCN(CCOCCO)CC2)C(=O)c2ccccc21`, the GI50 in test [1] is 22.4 µM (inactive); in test [2], 18.9 µM (inactive); in [3], 15.2 µM (inactive); in test [4], 17.3 µM (inactive); in test [5], 7.73 µM (inactive); in test [6] it was 2.85 µM (inactive). In addition, the GI50 in [7] was 2.05 µM (inactive); in test [8] it was 14.9 µM (inactive); in [9], 20.2 µM (inactive); in test [10], 15.3 µM (inactive); in test [11], 6.32 µM (inactive); in [12], 15.7 µM (inactive). Also, the GI50 is 15.3 µM (inactive) in test [13]; 2.33 µM (inactive) in test [14]; 18.4 µM (inactive) in [15]; 18.5 µM (inactive) in test [16]; 18 µM (inactive) in test [17]; 6.07 µM (inactive) in test [18]. The GI50 in test [19] was 16.3 µM (inactive); in test [20], 19.2 µM (inactive).
Consider `CCC/C=C/C=C/C(=O)OC1C(C)C2(O)C3C=C(C)C(=O)C3CC(COC(C)=O)=CC2C2C(C)(C)C12OC(=O)C(C)C` (stereo not given), for which the GI50 in test [1] was 26.1 µM (inactive); in [2], 11.7 µM (inactive); in test [3], 0.197 µM (active); in [4], 13 µM (inactive); in [5], 15.4 µM (inactive); in test [6], 17.1 µM (inactive). For the same compound, the GI50 is 0.966 µM (active) in test [7]; 22.8 µM (inactive) in test [8]; 13.5 µM (inactive) in test [9]; 16.8 µM (inactive) in test [10]; 11.2 µM (inactive) in test [11]; 0.83 µM (active) in [12]. The GI50 in test [13] is 53.1 µM (inactive); in test [14], 0.137 µM (active); in [15], 19.4 µM (inactive); in test [16], 1.66 µM (inactive); in test [17], 0.462 µM (active); in test [18], 13.4 µM (inactive). The results for the GI50 in test [19] and in test [20] were 16.9 µM (inactive) and 29.6 µM (inactive), respectively.
